Experimental data: PMC10711598, “Erythromycin, retapamulin, pyridoxine, folic acid, and ivermectin inhibit cytopathic effect, papain-like protease, and M^PRO enzymes of SARS-CoV-2” (Frontiers in Cellular and Infection Microbiology, 2023)

How the values were obtained:
SARS-CoV-2 [1] = test: Inhibition of SARS-CoV-2-induced CPE in Vero cells (neutral red assay); assay type: cell-based; settings: for Maximal inhibition of CPE (%): MOI 0.1, 48 h, maximal observed within tested dose range (5-10 µM; pyridoxine 10-20 µM); for IC50: Severe acute respiratory syndrome coronavirus 2, three-parameter model, responses constrained to 0-100%; for Dose at maximal observed inhibition of CPE: within tested dose range
[2] = molecular target: SARS-CoV-2 papain-like protease (Severe acute respiratory syndrome coronavirus 2, UniProt P0DTD1); test: SensoLyte 520 SARS-CoV-2 papain-like protease activity assay; assay type: biochemical; settings: for Maximal inhibition of PP (%): maximal observed within tested dose range (2.5-10 µM; pyridoxine 5-20 µM); for Dose at maximal observed inhibition of PP: within tested dose range
[3] = molecular target: SARS-CoV-2 main protease (MPRO or 3CL) (Severe acute respiratory syndrome coronavirus 2, UniProt P0DTD1); test: SensoLyte 520 SARS-CoV-2 MPRO activity assay; assay type: biochemical; settings: for Maximal inhibition of MPRO (%): maximal observed within tested dose range (2.5-10 µM; pyridoxine 5-20 µM); for Dose at maximal observed inhibition of MPRO: within tested dose range
Vero cells = test: Toxicity of the drugs alone to Vero cells (cell toxicity study); settings: all tested doses
SARS-CoV-2 [4] = system: SARS-CoV-2; set-up: method as in Caly et al., 2020; settings: inhibition of viral replication; ref Caly et al., 2020; cited from earlier work

Compound	Maximal inhibition of CPE (%) (SARS-CoV-2 [1])	IC50 (SARS-CoV-2 [1]) [µM]	Dose at maximal observed inhibition of CPE (SARS-CoV-2 [1]) [µM]	Maximal inhibition of PP (%) [2] [%]	Dose at maximal observed inhibition of PP [2] [µM]	Maximal inhibition of MPRO (%) [3] [%]	Dose at maximal observed inhibition of MPRO [3] [µM]	Toxicity to Vero cells (Vero cells)	Reduction in viral load (SARS-CoV-2 [4])
C=C[C@]1(C)C[C@@H](OC(=O)CS[C@@H]2C[C@H]3CC[C@@H](C2)N3C)[C@]2(C)[C@H](C)CC[C@]3(CCC(=O)[C@H]32)[C@@H](C)[C@@H]1O [Retapamulin]	75	4.23	7.5	20.60	5	33.37	2.5	–	–
Nc1nc2ncc(CNc3ccc(C(=O)N[C@@H](CCC(=O)O)C(=O)O)cc3)nc2c(=O)[nH]1 [Folic Acid]	42	–	5	31.99	5	26.8	2.5	not found to be toxic	–
Ivermectin	10	–	–	34.34	10	38.07	5.0	–	up to 5,000 fold
CC[C@H]1OC(=O)[C@H](C)[C@@H](O[C@H]2C[C@@](C)(OC)[C@@H](O)[C@H](C)O2)[C@H](C)[C@@H](O[C@@H]2O[C@H](C)C[C@H](N(C)C)[C@H]2O)[C@](C)(O)C[C@@H](C)C(=O)[C@H](C)[C@@H](O)[C@]1(C)O [Erythromycin]	76	3.27	10	29.46	10.0	30.51	2.5	–	–
Cc1ncc(CO)c(CO)c1O [Pyridoxine]	63	9.29	20	17.46	20.0	45.17	20.0	–	–
